{"source": "patent US11198704B2", "about": "“Butane-tetraol-based amphiphiles and uses thereof” (Industry-University Cooperation Foundation Hanyang …, priority 2016, dated 2021)", "key": {"[1]": {"assay": "Hydrodynamic radius and size distribution of micelles by dynamic light scattering (DLS)", "type": "physicochemical", "settings": "detergent 1.0% by weight", "experimental": "A method of measuring the radius of the micelles is not particularly limited, but the radius of the micelles may be measured using methods well known in the related art. For example, the radius of the micelles may be measured through a dynamic light scattering (DLS) experiment.\nSpecifically, the critical micelle concentration (CMC) was measured using diphenylhexatriene (DPH) as a fluorescent stain, and the hydrodynamic radii (Rh) of the micelles formed by each preparation (1.0% by weight) were measured through a dynamic light scattering (DLS) experiment."}, "[2]": {"system": "uric acid-xanthine/H+ symporter (UapA), UapAG411VΔ1-11 GFP fusion", "assay": "Thermal stability of UapA solubilized by detergent, fluorescence size exclusion chromatography (FSEC)", "parameters": "species or system Aspergillus nidulans", "settings": "detergent 1.0% by weight; 40° C. for 10 minutes", "experimental": "A UapA protein is a uric acid-xanthine/H^+ symporter in Aspergillus nidulans. An experiment for measuring structural stability of a uric acid-xanthine/H^+ symporter (UapA) by BTMs in an aqueous solution was performed. The structural stability of UapA was measured using fluorescence size exclusion chromatography (FSEC).\nSpecifically, UapAG411VΔ1-11 (hereinafter referred to as ‘UapA’) was expressed as a GFP fusion protein in a Saccharomyces cerevisiae FGY217 strain, and divided into a sample buffer (20 mM Tris (pH 7.5), 150 mM NaCl, 0.03% DDM, and 0.6 mM xanthine). This procedure was performed according to the method disclosed in the article by J. Leung et al. (Mol. Membr. Biol. 2013, 30, 32-42). Membranes containing UapA were re-suspended in PBS (10 mM imidazole pH 8.0, 150 mM NaCl, and 10% glycerol), and a concentration of proteins was measured. […] 100 μL aliquots were removed from the respective tubes, and fluorescence reading on each sample was performed before and after the aliquots were ultracentrifuged at 150,000 g for 10 minutes to remove insoluble matter. Water-soluble fractions remaining under each condition were subjected to fluorescence SEC (FSEC) using a Superose 6 column (GE Healthcare) equilibrated with a buffer containing a proper preparation (DDM or BTM)."}, "[3]": {"molecular_target": "T1, human β2 adrenergic receptor (β2AR) (Homo sapiens, UniProt P07550)", "T1 construct": "made in house", "T1 sequence (P07550 whole entry)": "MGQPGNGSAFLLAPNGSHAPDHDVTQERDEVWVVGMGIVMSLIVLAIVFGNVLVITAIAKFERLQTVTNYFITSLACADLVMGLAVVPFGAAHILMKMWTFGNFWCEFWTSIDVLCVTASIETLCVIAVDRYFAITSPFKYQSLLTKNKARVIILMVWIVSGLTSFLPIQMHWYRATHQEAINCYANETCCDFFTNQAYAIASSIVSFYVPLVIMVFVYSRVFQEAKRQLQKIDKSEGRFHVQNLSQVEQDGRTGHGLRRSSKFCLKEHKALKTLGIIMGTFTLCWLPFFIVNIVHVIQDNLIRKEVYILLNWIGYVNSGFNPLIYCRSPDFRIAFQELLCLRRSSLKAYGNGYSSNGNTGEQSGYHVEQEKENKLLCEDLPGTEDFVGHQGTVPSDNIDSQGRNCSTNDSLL", "assay": "Structural stability of β2AR, [3H]-dihydroalprenolol ([3H]-DHA) binding", "type": "biochemical", "settings": "BTMs without CHS, DDM with CHS", "experimental": "An experiment for determining the structural stability of a human β2 adrenergic receptor (β2AR) and a G-protein-coupled receptor (GPCR) by BTMs was performed. That is, a receptor purified with DDM was diluted with a buffer solution containing only each of the BTMs without cholesteryl hemisuccinate (CHS) or a buffer solution containing DDM with CHS. The final compound concentration was CMC+0.2% by weight, and the ligand-binding characteristics of the receptor were determined through [^3H]-dihydroalprenolol ([^3H]-DHA) binding.\nSpecifically, a radioactive ligand binding test was performed using the following method. β2AR was purified with 0.1% DDM (D. M. Rosenbaum et al., Science, 2007, 318, 1266-1273.), and finally concentrated to approximately 10 mg/mL (approximately 200 μM). A master binding mixture containing 10 nM [^3H]-dihydroalprenolol (DHA) supplemented with 0.5 mg/mL BSA in each 0.2% amphiphilic compound (DDM or BTMs) was prepared using the β2AR purified with DDM. The ligand-binding characteristics of the receptor purified with the amphiphilic compound at 0.2 pmol was monitored at regular intervals while the receptor was incubated at room temperature for 3 days. The ligand-binding characteristics of the receptor were determined using a water-soluble radioactive ligand binding assay as will be described below. The receptor purified with DDM or each of the BTMs was incubated with 10 nM [^3H]-DHA at room temperature for 30 minutes. The mixture was loaded on a G-50 column, and flow-through fractions were collected using 1 mL of a binding buffer (20 mM HEPES (pH 7.5) supplemented with 0.5 mg/mL BSA and 20×CMC of each amphiphilic compound, 100 mM NaCl). Then, the G-50 column was filled with 15 mL of a scintillation fluid. Receptor-bound [^3H]-DHA was counted using a scintillation counter (Beckman). Non-specific binding of [^3H]-DHA was determined by adding 2 μM of alprenolol (Sigma) in the same binding reaction. The binding affinity of [^3H]-DHA was plotted on a column graph, and each experiment was performed in triplicate."}}}
{"smiles": "CCCCCCCCCCCCO[C@@H]1O[C@H](CO)[C@@H](O[C@H]2O[C@H](CO)[C@@H](O)[C@H](O)[C@H]2O)[C@H](O)[C@H]1O", "note": "[DDM, n-dodecyl-β-D-maltopyranoside, reference compound]", "values": [{"measurement": "Rh (nm), hydrodynamic radius of micelles", "setting": "[1]", "value": "3.4 ± 0.03", "unit": "nm"}, {"measurement": "UapA monodisperse peak in FSEC (extraction and structural stability)", "setting": "[2]", "value": "monodisperse peak with a relatively high strength"}, {"measurement": "initial ligand-binding characteristics of β2AR ([3H]-DHA)", "setting": "[3]; CMC+0.2% by weight", "value": "high ability to bind to a ligand"}, {"measurement": "remaining ligand-binding ability of β2AR, % of initial", "setting": "[3]; after 3 days of incubation at room temperature", "value": 10, "unit": "%"}]}
